# From US20230303570A1, “KINASE INHIBITORS AND USES THEREOF” (ABM Therapeutics Corporation, priority 2020, published 2023)
# pIC50: −log10 of the molar value.
# How the values were obtained:
# Assay type in all cases: biochemical
# HPK1 (MAP4K1) = HPK1 (MAP4K1) (Homo sapiens, UniProt Q92918); assay: HPK1 (MAP4K1) kinase Lantha screen assay
# Outline: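 Recombinant MAP4K1 preincubated 10 min with compound (6-point dilution, duplicates) in 50 mM HEPES pH 7.5, 10 mM MgCl2, then reacted with Fluorescein-PKC substrate and ATP for 90 min at room temperature. Antibody detection solution stopped reaction; after 60 min, TR-FRET read at ex 340 nm, em 520/495 nm.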
# RET = RET (Homo sapiens, UniProt P07949); assay: RET kinase mobility shift assay
# Sequence of RET (P07949 29-1114, species assumed): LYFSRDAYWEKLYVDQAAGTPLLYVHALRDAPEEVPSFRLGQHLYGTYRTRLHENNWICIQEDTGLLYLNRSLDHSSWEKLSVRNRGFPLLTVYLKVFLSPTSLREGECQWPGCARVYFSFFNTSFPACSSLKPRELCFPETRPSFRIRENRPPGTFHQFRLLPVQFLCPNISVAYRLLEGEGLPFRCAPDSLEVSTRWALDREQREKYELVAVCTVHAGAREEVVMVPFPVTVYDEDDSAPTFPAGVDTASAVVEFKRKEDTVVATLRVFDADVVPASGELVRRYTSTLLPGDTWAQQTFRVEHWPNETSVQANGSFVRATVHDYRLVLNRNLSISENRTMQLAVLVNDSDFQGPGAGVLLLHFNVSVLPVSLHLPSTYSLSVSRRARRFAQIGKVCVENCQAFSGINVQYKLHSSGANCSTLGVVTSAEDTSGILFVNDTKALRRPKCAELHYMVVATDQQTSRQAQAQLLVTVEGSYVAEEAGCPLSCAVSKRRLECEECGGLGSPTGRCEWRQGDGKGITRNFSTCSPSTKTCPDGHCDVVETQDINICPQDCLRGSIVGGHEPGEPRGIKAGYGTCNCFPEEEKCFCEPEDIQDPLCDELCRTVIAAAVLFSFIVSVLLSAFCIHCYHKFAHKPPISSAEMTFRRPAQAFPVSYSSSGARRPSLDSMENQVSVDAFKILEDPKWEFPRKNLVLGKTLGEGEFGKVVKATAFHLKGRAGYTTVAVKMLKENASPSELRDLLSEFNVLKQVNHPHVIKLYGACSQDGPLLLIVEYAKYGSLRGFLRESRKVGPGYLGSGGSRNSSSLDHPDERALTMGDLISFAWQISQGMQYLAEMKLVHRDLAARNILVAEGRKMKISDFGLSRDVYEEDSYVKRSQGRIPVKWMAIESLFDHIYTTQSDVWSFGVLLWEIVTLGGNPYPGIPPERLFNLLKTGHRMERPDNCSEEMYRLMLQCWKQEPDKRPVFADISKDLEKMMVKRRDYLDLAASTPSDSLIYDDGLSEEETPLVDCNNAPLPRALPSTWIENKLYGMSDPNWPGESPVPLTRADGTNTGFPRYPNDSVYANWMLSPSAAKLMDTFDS
# Procedure: (§1) The effect of the compounds on the activity of cKit, RET and AXL kinases were assessed by Mobility shift assay. • 1. 1× kinase base buffer and stop buffer for testing kinases were prepared • 1-1) 1× Kinase base buffer (50 mM HEPES, pH 7.5, 0.01% Triton X-100) • 1-2) Stop buffer (100 mM HEPES, pH 7.5, 0.015% Brij-35, 0.2% Coating Reagent #3, 50 mM EDTA) • 2. Compound and assay plate preparation: the compound was diluted to 50× of the final desired highest inhibitor concentration in reaction by 100% DMSO. 100 μl of this compound dilution was transferred to a well in a 96-well plate. For example, if the highest desired concentration was 5 μM, then 250 μM of compound DMSO solution was prepared in this step. For all compounds, the compound was serially diluted by transferring 10 μl to 70 μl of 100 DMSO in the next well and so forth for a total of 5 concentrations. 100 μl of 100% DMSO was added to two empty wells for no compound control and no enzyme control in the same 96-well plate. The plate was labeled as source plate. The intermediate plate was prepared by transferring 10 μl of compound from source plate to a new 96-well plate as the intermediate plate, adding 90 μl of 1× kinase buffer to each well of the intermediate plate, mixing the compounds in intermediate plate for 10 min on shaker. 5 μl of each well from the 96-well intermediate plate were transferred to a 384-well plate in duplicates. For example, A1 of the 96-well plate was transferred to A1 and A2 of the 384-well plate. A2 of the 96-well plate was transferred to A3 and A4 of the 384-well plate, and so on. • 4. Kinase reaction: The assay plate already contained 5 μl of compound in 10% DMSO. A 2.5× enzyme solution was prepared by adding kinases (cKit, RET, or AXL) and DTT in 1× kinase base buffer. 2.5× enzyme solution was transferred to the assay plate (by adding 10 μl of 2.5× enzyme solution to each well of the 384-well assay plate). The plate was incubated at room temperature for 10 min. 2.5× peptide solution was prepared by adding FAM-labeled peptide, ATP, MgCl2 in the 1× kinase base buffer. 2.5× peptide solution was added to the assay plate by adding 10 μl of 2.5× peptide solution to each well of the 384-well assay plate. The plate was incubated at 28° C. for the specified period of time. 25 μl of stop buffer was added to stop reaction. Data was collected on Caliper.
# Axl = target: T1, Axl (Homo sapiens, UniProt P30530); assay: AXL kinase mobility shift assay
# T1 sequence (P30530 26-894): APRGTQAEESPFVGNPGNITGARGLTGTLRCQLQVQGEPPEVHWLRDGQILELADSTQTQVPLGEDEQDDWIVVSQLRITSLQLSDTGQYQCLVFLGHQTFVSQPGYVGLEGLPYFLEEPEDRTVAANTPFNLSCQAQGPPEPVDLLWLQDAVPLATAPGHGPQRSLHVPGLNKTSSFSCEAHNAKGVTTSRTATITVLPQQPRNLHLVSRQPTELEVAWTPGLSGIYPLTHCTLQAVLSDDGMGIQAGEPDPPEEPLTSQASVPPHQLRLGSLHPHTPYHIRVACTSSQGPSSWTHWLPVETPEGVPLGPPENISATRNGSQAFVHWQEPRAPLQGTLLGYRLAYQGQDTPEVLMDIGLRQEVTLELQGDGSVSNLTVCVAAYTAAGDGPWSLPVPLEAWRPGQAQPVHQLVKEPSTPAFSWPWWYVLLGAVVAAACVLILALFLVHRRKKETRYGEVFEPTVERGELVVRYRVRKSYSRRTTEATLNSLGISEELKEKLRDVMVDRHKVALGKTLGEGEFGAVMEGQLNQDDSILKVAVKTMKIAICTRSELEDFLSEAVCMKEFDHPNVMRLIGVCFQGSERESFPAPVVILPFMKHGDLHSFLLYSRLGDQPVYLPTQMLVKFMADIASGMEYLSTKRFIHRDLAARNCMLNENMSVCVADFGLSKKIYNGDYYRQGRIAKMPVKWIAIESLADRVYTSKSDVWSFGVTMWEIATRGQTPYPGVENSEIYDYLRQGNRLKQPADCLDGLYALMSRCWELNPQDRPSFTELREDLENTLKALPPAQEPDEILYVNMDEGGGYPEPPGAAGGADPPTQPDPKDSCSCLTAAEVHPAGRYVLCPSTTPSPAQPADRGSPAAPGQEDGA
# Procedure: as §1
# c-Kit = c-Kit (Homo sapiens, UniProt P10721); assay: cKit kinase mobility shift assay
# Sequence of c-Kit (P10721 26-976): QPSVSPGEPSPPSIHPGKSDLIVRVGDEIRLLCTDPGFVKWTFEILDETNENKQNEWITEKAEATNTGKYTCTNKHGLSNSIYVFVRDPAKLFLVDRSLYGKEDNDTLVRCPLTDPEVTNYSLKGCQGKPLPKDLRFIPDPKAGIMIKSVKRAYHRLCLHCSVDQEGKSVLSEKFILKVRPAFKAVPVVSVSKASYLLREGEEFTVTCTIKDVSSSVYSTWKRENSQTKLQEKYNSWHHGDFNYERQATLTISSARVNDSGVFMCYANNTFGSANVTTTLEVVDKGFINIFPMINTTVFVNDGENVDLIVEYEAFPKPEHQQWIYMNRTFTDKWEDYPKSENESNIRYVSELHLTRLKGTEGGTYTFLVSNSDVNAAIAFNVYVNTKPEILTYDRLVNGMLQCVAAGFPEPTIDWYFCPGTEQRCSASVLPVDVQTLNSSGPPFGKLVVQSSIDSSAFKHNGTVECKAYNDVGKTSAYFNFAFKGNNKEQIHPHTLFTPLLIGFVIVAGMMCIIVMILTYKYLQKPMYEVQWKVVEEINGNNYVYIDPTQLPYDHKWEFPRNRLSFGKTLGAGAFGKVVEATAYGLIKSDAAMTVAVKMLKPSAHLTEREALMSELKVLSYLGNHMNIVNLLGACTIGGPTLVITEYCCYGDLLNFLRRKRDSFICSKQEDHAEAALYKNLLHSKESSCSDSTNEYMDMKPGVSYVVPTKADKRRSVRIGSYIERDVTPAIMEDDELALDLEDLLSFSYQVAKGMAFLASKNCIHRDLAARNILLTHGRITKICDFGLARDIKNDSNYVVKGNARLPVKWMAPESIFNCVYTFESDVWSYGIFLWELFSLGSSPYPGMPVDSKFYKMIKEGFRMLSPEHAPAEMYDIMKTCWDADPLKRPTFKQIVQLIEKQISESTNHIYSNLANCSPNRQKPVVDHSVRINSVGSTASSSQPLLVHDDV
# Outline: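 Human kinase with DTT in 50 mM HEPES pH 7.5 and 0.01% Triton X-100 was preincubated with compound for 10 min at room temperature, using a 5-point dilution in duplicate. FAM-labeled peptide, ATP and MgCl2 were then added and the reaction run at 28° C. Reactions were stopped with EDTA buffer and peptide conversion was read by Caliper mobility shift.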
# Sequence of HPK1 (MAP4K1) (Q92918 whole entry, species assumed): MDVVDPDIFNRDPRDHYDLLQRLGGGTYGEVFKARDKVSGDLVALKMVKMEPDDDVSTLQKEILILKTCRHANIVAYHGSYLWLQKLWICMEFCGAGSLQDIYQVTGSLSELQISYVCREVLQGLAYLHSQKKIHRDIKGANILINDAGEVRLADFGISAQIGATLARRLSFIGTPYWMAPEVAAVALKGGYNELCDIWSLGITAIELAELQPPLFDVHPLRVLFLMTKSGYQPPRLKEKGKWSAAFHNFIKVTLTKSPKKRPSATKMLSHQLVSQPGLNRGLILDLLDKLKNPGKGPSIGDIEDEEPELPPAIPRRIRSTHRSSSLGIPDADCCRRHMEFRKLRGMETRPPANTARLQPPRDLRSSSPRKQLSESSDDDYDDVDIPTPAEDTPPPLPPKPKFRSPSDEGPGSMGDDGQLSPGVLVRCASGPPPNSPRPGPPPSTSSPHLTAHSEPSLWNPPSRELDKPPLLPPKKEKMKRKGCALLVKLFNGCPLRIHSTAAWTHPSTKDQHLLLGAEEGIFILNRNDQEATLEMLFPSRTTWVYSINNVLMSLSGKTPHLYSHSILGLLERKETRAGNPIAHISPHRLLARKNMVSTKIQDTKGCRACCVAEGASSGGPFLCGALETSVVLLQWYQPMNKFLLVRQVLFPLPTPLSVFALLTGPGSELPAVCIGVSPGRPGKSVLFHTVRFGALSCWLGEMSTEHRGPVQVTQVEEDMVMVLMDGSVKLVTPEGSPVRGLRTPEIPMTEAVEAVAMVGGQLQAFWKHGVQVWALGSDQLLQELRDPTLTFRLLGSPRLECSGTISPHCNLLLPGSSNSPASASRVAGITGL
SMILES,pIC50 (HPK1 (MAP4K1)),pIC50 (RET),pIC50 (Axl),pIC50 (c-Kit)
"Cc1ccc(NC(=O)c2cc(C(F)(F)F)ccn2)cc1C1=Cc2cnc(NCCF)nc2N2CCN=C12 [Compound 111, N-(3-(2-((2-fluoroethyl)amino)-8,9-dihydroimidazo[1′,2′:1,6]pyrido[2,3-d]pyrimidin-6-yl)-4-methylphenyl)-4-(trifluoromethyl)picolinamide]",5.00 to 7.00,> 7.00,–,–
"Cc1ccc(Nc2ncc3c(n2)N2CCN=C2C(c2cc(NC(=O)c4cc(C(F)(F)F)ccn4)ccc2C)=C3)cn1 [Compound 208, N-(4-methyl-3-(2-((6-methylpyridin-3-yl)amino)-8,9-dihydroimidazo[1′,2′:1,6]pyrido[2,3-d]pyrimidin-6-yl)phenyl)-4-(trifluoromethyl)picolinamide]",> 7.00,> 7.00,–,–
"CNc1ncc2c(n1)N1CCN=C1C(c1cc(NC(=O)c3cc(C(F)(F)F)ccn3)ccc1F)=C2C [Compound 121, N-(4-fluoro-3-(5-methyl-2-(methylamino)-8,9-dihydroimidazo[1′,2′:1,6]pyrido[2,3-d]pyrimidin-6-yl)phenyl)-4-(trifluoromethyl)picolinamide]",5.00 to 7.00,5.00 to 7.00,–,–
"CNc1ncc2c(n1)N1CCN=C1C(c1cc(NC(=O)Nc3cc(C(F)(F)F)ccc3F)c(F)cc1C)=C2 [Compound 333, 1-(2-fluoro-4-methyl-5-(2-(methylamino)-8,9-dihydroimidazo[1′,2′:1,6]pyrido[2,3-d]pyrimidin-6-yl)phenyl)-3-(2-fluoro-5-(trifluoromethyl)phenyl)urea]",–,–,< 5.00,> 7.00
"CNc1ncc2c(n1)N1C(=NC[C@H]1C)C(c1cc(NC(=O)c3cc(C(F)(F)F)ccn3)ccc1C)=C2 [Compound 129, (R)—N-(4-methyl-3-(9-methyl-2-(methylamino)-8,9-dihydroimidazo[1′,2′:1,6]pyrido[2,3-d]pyrimidin-6-yl)phenyl)-4-(trifluoromethyl)picolinamide]",5.00 to 7.00,5.00 to 7.00,–,–
"CNc1ncc2c(n1)N1CCN=C1C(c1cc(NS(=O)(=O)c3ccccc3F)ccc1C)=C2 [Compound 289, 2-fluoro-N-(4-methyl-3-(2-(methylamino)-8,9-dihydroimidazo[1′,2′:1,6]pyrido[2,3-d]pyrimidin-6-yl)phenyl)benzenesulfonamide]",–,–,< 5.00,< 5.00
"CNc1ncc2c(n1)N1CCN=C1C(c1c(C)ccc(NC(=O)Nc3ccccc3Cl)c1F)=C2 [Compound 336, 1-(2-chlorophenyl)-3-(2-fluoro-4-methyl-3-(2-(methylamino)-8,9-dihydroimidazo[1′,2′:1,6]pyrido[2,3-d]pyrimidin-6-yl)phenyl)urea]",–,–,< 5.00,5.00 to 7.00
"CNc1ncc2c(n1)N1CCN=C1C(c1cc(NC(=O)c3cc(C(F)(F)F)ccn3)ccc1F)=C2 [Compound 135, N-(4-fluoro-3-(2-(methylamino)-8,9-dihydroimidazo[1′,2′:1,6]pyrido[2,3-d]pyrimidin-6-yl)phenyl)-4-(trifluoromethyl)picolinamide]",5.00 to 7.00,> 7.00,–,–
"CNc1ncc2c(n1)N1CCN=C1C(c1cc(NC(=O)c3cc(C(F)(F)F)ccn3)ccc1Cl)=C2 [Compound 136, N-(4-chloro-3-(2-(methylamino)-8,9-dihydroimidazo[1′,2′:1,6]pyrido[2,3-d]pyrimidin-6-yl)phenyl)-4-(trifluoromethyl)picolinamide]",5.00 to 7.00,> 7.00,–,> 7.00
"CNc1ncc2c(n1)N1CCN=C1C(c1cc(NC(=O)c3cn(C(C)C)c(=O)n(-c4ccc(F)cc4)c3=O)ccc1C)=C2 [Compound 193, 3-(4-fluorophenyl)-1-isopropyl-N-(4-methyl-3-(2-(methylamino)-8,9-dihydroimidazo[1′,2′:1,6]pyrido[2,3-d]pyrimidin-6-yl)phenyl)-2,4-dioxo-1,2,3,4-tetrahydropyrimidine-5-carboxamide]",5.00 to 7.00,–,< 5.00,–
"CNc1ncc2c(n1)N1CCN=C1C(c1cc(NC(=O)c3cc(C(F)(F)F)ccn3)ccc1C)=C2C [Compound 120, N-(4-methyl-3-(5-methyl-2-(methylamino)-8,9-dihydroimidazo[1′,2′:1,6]pyrido[2,3-d]pyrimidin-6-yl)phenyl)-4-(trifluoromethyl)picolinamide]",5.00 to 7.00,5.00 to 7.00,–,–
"CNc1ncc2c(n1)N1CCN=C1C(c1cc(NS(=O)(=O)c3cccc(C(F)(F)F)c3)c(F)cc1C)=C2 [Compound 285, N-(2-fluoro-4-methyl-5-(2-(methylamino)-8,9-dihydroimidazo[1′,2′:1,6]pyrido[2,3-d]pyrimidin-6-yl)phenyl)-3-(trifluoromethyl)benzenesulfonamide]",–,–,< 5.00,< 5.00
"CNc1ncc2c(n1)N1CCN=C1C(c1cc(NC(=O)Nc3cc(C(F)(F)F)ccc3Cl)c(F)cc1C)=C2 [Compound 335, 1-(2-chloro-5-(trifluoromethyl)phenyl)-3-(2-fluoro-4-methyl-5-(2-(methylamino)-8,9-dihydroimidazo[1′,2′:1,6]pyrido[2,3-d]pyrimidin-6-yl)phenyl)urea]",–,–,< 5.00,> 7.00
"CNc1ncc2c(n1)N1CCN=C1C(c1cc(NC(=O)Nc3cccc(C(F)(F)F)c3)c(F)cc1C)=C2 [Compound 330, 1-(2-fluoro-4-methyl-5-(2-(methylamino)-8,9-dihydroimidazo[1′,2′:1,6]pyrido[2,3-d]pyrimidin-6-yl)phenyl)-3-(3-(trifluoromethyl)phenyl)urea]",5.00 to 7.00,–,< 5.00,> 7.00
"CNc1ncc2c(n1)N1C(=NC[C@@H]1C)C(c1cc(NC(=O)c3cc(C(F)(F)F)ccn3)ccc1C)=C2 [Compound 130, (S)—N-(4-methyl-3-(9-methyl-2-(methylamino)-8,9-dihydroimidazo[1′,2′:1,6]pyrido[2,3-d]pyrimidin-6-yl)phenyl)-4-(trifluoromethyl)picolinamide]",> 7.00,> 7.00,–,–
"CNc1ncc2c(n1)N1CCN=C1C(c1c(C)ccc(NS(=O)(=O)c3ccccc3Cl)c1F)=C2 [Compound 287, 2-chloro-N-(2-fluoro-4-methyl-3-(2-(methylamino)-8,9-dihydroimidazo[1′,2′:1,6]pyrido[2,3-d]pyrimidin-6-yl)phenyl)benzenesulfonamide]",–,–,> 7.00,5.00 to 7.00
"CNc1nc(C)c2c(n1)N1CCN=C1C(c1cc(NC(=O)c3cc(C(F)(F)F)ccn3)ccc1C)=C2 [Compound 122, N-(4-methyl-3-(4-methyl-2-(methylamino)-8,9-dihydroimidazo[1′,2′:1,6]pyrido[2,3-d]pyrimidin-6-yl)phenyl)-4-(trifluoromethyl)picolinamide]",< 5.00,< 5.00,–,–
